Among the data in publication PMC8041284, “Tunable Methacrylamides for Covalent Ligand Directed Release Chemistry” (Journal of the American Chemical Society, 2021) are inhibition values, retold here.

Where a SMILES comes first, the peptide text is derived from it. Bridges are numbered along the chain shown (N, C = ends).

In the experiment the target is BTK (Homo sapiens, UniProt Q06187). Description: biochemical. The conditions noted are these: read-out: BTK inhibition (%), 0.75 uM BTK, […] probe 3l, 15 min preincubation.

By inhibition is commonly meant the change of the read-out against control, counted positive when it falls.

BTK, sequence (Q06187 402-655 limits assumed): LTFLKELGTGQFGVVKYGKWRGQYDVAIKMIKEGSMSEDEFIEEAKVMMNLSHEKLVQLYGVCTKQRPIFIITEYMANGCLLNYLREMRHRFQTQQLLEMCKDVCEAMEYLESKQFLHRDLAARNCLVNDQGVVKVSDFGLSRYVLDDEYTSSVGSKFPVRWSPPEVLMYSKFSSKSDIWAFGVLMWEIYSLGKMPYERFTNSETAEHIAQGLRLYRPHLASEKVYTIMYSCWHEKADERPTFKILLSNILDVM

Regarding `CO[C@H]1C[C@H](O[C@@H]2/C(C)=C/C[C@@H]3C[C@@H](C[C@]4(CC[C@H](C)[C@@H](C5CCCCC5)O4)O3)OC(=O)[C@@H]3C=C(C)/C(=N/O)[C@H]4OC/C(=C\C=C\[C@@H]2C)[C@]43O)O[C@@H](C)[C@@H]1O` [PCM-0216231], the inhibition at 10 µM is 41.7%.
The figure for `NC(=O)c1ccc[n+]([C@@H]2O[C@H](COP(=O)([O-])O)[C@@H](O)[C@H]2O)c1` [PCM-0216232] is -6.8%; for `Cc1[nH]c(/C=C2\C(=O)Nc3ccc(F)cc32)c(C)c1C(=O)NCCN1CCCC1` [PCM-0216233] it is 18.7%; for `CNC(=O)c1cnn(-c2nc(N)c3ncn([C@@H]4O[C@H](CO)[C@@H](O)[C@H]4O)c3n2)c1` [PCM-0216236] it is 5.4%.
`C[C@H]1C[C@H]2[C@@H]3C[C@H](F)C4=CC(=O)C=C[C@]4(C)[C@@]3(F)[C@@H](O)C[C@]2(C)[C@@]1(O)C(=O)CO` [PCM-0216237]: the inhibition at 10 µM amounted to 9%.
The figure for `O=C(O)COc1nn(Cc2ccccc2)c2ccccc12` [PCM-0216238] is -3.1%.
On to `COC(=O)C1=CC[C@@]23CC[C@@H]([C@@](C)(/C=C/C=C(\C)C(=O)O)OC2=O)[C@@]3(OC(C)=O)CC1` [PCM-0216239], for which the inhibition at 10 µM was 2.1%.
As for `CC(=O)Oc1ccc(C(=C2CCCCC2)c2ccc(OC(C)=O)cc2)cc1` [PCM-0216241], the inhibition at 10 µM is -3.9%.
The value for `CCCOC(=O)c1ccc(O)cc1` [PCM-0216242] was -6.2%.
The figure for `CC1(C)S[C@@H]2[C@H](NC(=O)[C@H](N)c3ccccc3)C(=O)N2[C@H]1C(=O)OCOC(=O)[C@@H]1N2C(=O)C[C@H]2S(=O)(=O)C1(C)C` [PCM-0216243] is -11.6%; for `CCOc1ccc(Cc2cc([C@]34OC[C@](CO)(O3)[C@@H](O)[C@H](O)[C@H]4O)ccc2Cl)cc1` [PCM-0216244] it is 7.7%.
The value for `O=C(c1ccc(Oc2ccccc2)cc1Cl)c1c[nH]c2ncnc(N[C@@H]3CC[C@@H](CO)OC3)c12` [PCM-0216245] was 116%.
Turning to `C[C@@H](C(=O)Nc1ccc(Cl)cc1)C1CCC(c2ccnc3ccc(F)cc23)CC1` (stereo partly drawn) [PCM-0216246], the inhibition at 10 µM came to 27%.
The value for `Cc1ccc(-c2n[nH]c3c2C(c2cccc(O)c2)N(c2ccc(C(=O)O)cc2)C3=O)cc1` (stereo not drawn) [PCM-0216247] was 41.7%; that for `CCCCC(=O)OCC(=O)[C@H]1[C@H](C)C[C@H]2[C@@H]3C[C@H](F)C4=CC(=O)C=C[C@]4(C)[C@@]3(F)[C@@H](O)C[C@@]21C` [PCM-0216248] was 2.3%.
The value for `C[C@H]1O[C@@H](O[C@H]2CC[C@@]3(C)[C@@H](CC[C@]4(C)[C@@H]3C=C[C@]35OC[C@@]6(CCC(C)(C)C[C@H]63)[C@@H](O)C[C@]54C)[C@]2(C)CO)[C@H](O)[C@@H](O[C@@H]2O[C@H](CO)[C@@H](O)[C@H](O)[C@H]2O)[C@H]1O` [PCM-0216249] was -23.4%; that for `O=C(Nc1ncc([N+](=O)[O-])s1)c1ccccc1O` [PCM-0216250] was 7.7%; that for `CS(=O)(=O)Nc1cc2occ(NC=O)c(=O)c2cc1Oc1ccccc1` [PCM-0216251] was 6.2%.
The figure for `C[C@H](CSC(=O)c1ccccc1)C(=O)N1C[C@@H](Sc2ccccc2)C[C@H]1C(=O)O` [PCM-0216252] is -43.2%; for `NCCC[C@H](N)C(=O)O` [PCM-0216253] it is -3.4%; for `CC1(C)OC[C@@H](COC(=O)CCc2ccc(OC[C@@H](O)CNCCNC(=O)N3CCOCC3)cc2)O1` [PCM-0216254] it is -3.1%.
Regarding `CCC(=O)O[C@@H]1CC(=O)O[C@H](C)C/C=C/C=C/[C@H](O)[C@H](C)C[C@H](CC=O)[C@H](O[C@@H]2O[C@H](C)[C@@H](O[C@H]3C[C@@](C)(O)[C@@H](OC(=O)CC)[C@H](C)O3)[C@H](N(C)C)[C@H]2O)[C@H]1OC` [PCM-0216255], the inhibition at 10 µM came out at 6.2%.
The figure for `CC(C)CCNc1ncccc1C(=O)N1CCN(Cc2ccccc2)CC1` [PCM-0216256] is -30.1%.
The value for `CC1(C)C[C@@H]1C(=O)N/C(=C\CCCCSC[C@H](N)C(=O)O)C(=O)O` [PCM-0216257] was -10%; that for `CCCCCC1C(=O)CCC1CC(=O)OCCC` (stereo not drawn) [PCM-0216258] was -0.8%.
As for `C=CC(=O)Nc1cc(Nc2nccc(-n3cc(CN(C)C)c(-c4ccccc4)n3)n2)c(OC)cc1N1CCOCC1` [PCM-0216259], the inhibition at 10 µM turned out to be 11.1%.
The figure for `Cc1cc(=O)c(C(=O)N[C@@H](C(=O)N[C@@H]2C(=O)N3C(C(=O)O)=C(CSc4nnnn4C)CS[C@H]23)c2ccc(O)cc2)c[nH]1` [PCM-0216260] is 23.2%; for `CC1=C(C/C=C(\C)CCC[C@H](C)CCC[C@H](C)CCCC(C)C)C(=O)c2ccccc2C1=O` [PCM-0216261] it is 7.8%.
The figure for `CCOC(=O)c1cc(O)c(O)c(O)c1` [PCM-0216263] is 9.3%; for `NCCCC[C@H](NC(=O)[C@@H]1CCCN1C(=O)[C@@H]1CSSC[C@H](N)C(=O)N[C@@H](Cc2ccc(O)cc2)C(=O)N[C@@H](Cc2ccccc2)C(=O)N[C@@H](CCC(N)=O)C(=O)N[C@@H](CC(N)=O)C(=O)N1)C(=O)NCC(N)=O` [PCM-0216267] it is -19.6%.
For `CCNC(=O)[C@@H]1CCCN1C(=O)[C@H](CCCN=C(N)N)NC(=O)[C@H](CC(C)C)NC(=O)[C@@H](C)NC(=O)[C@H](Cc1ccc(O)cc1)NC(=O)[C@H](CO)NC(=O)[C@H](Cc1c[nH]c2ccccc12)NC(=O)[C@H](Cc1cnc[nH]1)NC(=O)C1CCC(=O)N1` (stereo partly drawn) [PCM-0216272], the inhibition at 10 µM stood at 23.8%.
The figure for `CC(C)C[C@H](NC(=O)CNC(=O)[C@H](Cc1ccc(O)cc1)NC(=O)[C@H](CO)NC(=O)[C@H](Cc1c[nH]c2ccccc12)NC(=O)[C@H](Cc1cnc[nH]1)NC(=O)[C@@H]1CCC(=O)N1)C(=O)N[C@@H](CCCN=C(N)N)C(=O)N1CCC[C@H]1C(=O)NCC(N)=O` [PCM-0216273] is -5.1%; for `NCCCC[C@H](NC(=O)[C@@H]1CCCN1C(=O)[C@@H]1CSSC[C@H](NC(=O)CNC(=O)CNC(=O)CN)C(=O)N[C@@H](Cc2ccc(O)cc2)C(=O)N[C@@H](Cc2ccccc2)C(=O)N[C@@H](CCC(N)=O)C(=O)N[C@@H](CC(N)=O)C(=O)N1)C(=O)NCC(N)=O` [PCM-0216274] (H-GGGCYFQNCPKG-NH2; disulfide 4-9) it is -3.4%; for `CN1CCc2nc(C(=O)N[C@@H]3C[C@@H](C(=O)N(C)C)CC[C@@H]3NC(=O)C(=O)Nc3ccc(Cl)cn3)sc2C1` [PCM-0216277] it is -4.6%.
The value for `Cc1cc(O)cc(O)c1` [PCM-0216278] was 3.1%.
The value for `Cc1cc(=O)oc2ccc(O)cc12` [PCM-0216279] was 17%; that for `CCOC(=O)c1cc2ccccc2oc1=O` [PCM-0216280] was -16.2%; that for `CCOc1cc(C=O)ccc1OC(C)=O` [PCM-0216281] was 4.6%.
Consider `COC(=O)[C@H](O)[C@@H](NC(=O)c1ccccc1)c1ccccc1` [PCM-0216282], for which the inhibition at 10 µM was -5.4%.
The figure for `COC1[C@@H](O)[C@H](O)C(O)[C@H](O)[C@H]1O` (stereo partly drawn) [PCM-0216283] is 11.6%; for `OC[C@@H](O)[C@@H](O)[C@@H](O)[C@@H](O)CO` [PCM-0216285] it is -17%; for `CCOC(=O)/C=C/c1ccc(OC)cc1` [PCM-0216286] it is -3.1%.
